Experimental data taken from ChEMBL document CHEMBL4823311, “Optimization of Naphthyridones into Selective TATA-Binding Protein Associated Factor 1 (TAF1) Bromodomain Inhibitors” (ACS Med Chem Lett, 2021).

Biological target: T1, Peregrin (Homo sapiens, UniProt P55201)
T1 sequence (P55201 whole entry): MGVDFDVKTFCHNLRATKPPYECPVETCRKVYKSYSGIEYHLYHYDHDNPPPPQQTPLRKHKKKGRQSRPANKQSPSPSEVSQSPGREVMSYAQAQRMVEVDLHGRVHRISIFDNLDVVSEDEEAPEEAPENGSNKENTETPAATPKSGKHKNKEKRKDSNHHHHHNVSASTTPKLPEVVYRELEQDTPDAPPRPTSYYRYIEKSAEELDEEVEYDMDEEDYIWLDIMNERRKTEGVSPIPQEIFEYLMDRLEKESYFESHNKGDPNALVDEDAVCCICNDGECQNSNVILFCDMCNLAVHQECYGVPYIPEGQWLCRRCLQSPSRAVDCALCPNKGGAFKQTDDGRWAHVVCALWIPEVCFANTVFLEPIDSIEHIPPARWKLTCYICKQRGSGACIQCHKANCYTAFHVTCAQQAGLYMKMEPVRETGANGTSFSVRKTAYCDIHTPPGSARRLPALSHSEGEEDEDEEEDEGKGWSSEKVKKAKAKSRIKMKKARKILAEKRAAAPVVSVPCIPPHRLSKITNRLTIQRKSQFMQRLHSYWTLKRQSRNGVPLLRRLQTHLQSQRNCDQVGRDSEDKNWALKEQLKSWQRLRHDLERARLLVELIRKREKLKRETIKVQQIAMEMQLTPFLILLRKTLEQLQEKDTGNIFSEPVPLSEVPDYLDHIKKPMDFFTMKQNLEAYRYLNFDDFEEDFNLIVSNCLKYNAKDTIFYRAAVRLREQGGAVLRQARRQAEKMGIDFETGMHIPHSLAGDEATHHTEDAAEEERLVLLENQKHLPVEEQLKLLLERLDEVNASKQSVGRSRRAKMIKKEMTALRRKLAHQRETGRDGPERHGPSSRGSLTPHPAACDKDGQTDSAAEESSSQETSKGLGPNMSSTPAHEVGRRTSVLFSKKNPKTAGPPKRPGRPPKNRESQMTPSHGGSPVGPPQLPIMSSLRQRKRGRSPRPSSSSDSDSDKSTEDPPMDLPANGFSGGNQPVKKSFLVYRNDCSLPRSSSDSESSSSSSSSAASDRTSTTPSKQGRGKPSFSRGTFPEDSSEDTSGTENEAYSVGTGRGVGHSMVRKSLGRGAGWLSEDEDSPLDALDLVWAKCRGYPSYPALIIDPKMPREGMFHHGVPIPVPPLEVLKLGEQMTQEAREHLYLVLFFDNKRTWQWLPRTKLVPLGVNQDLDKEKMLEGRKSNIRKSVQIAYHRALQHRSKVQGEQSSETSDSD
Test: Inhibition of human partial length BRPF1 (E627 to G740 residues) expressed in bacterial expression system by BROMOscan assay

Cc1cc2c(C3=CCOCC3)cnc(NC3CCN(C(=O)C(F)(F)CN)CC3)c2[nH]c1=O
Ki: 5.01 µM
